Results from patent publication US6582952B1 (priority 1997, dated 2003).
Entries after “also recorded” stand apart in the source; their conditions may differ.

Tested on: Bacillus licheniformis

## Nc1n[nH]c(=O)[nH]1 [amine, 5-amino-1,2,4-triazole-3-one]
  stability of the amine formed in the incubation mixture: does not undergo any subsequent transformation; also recorded: stable
